# Data taken from patent US9809573B2, “Substituted pyridine derivatives useful as GSK-3 inhibitors” (priority 2013, dated 2017).
# Where two headings read alike, the source gives them in different places.
# Tests used:
# GSK3β = GSK3β (Homo sapiens, UniProt P49841); assay: GSK3β kinase assay (Caliper LabChip3000, fluoresceinated peptide substrate); format: biochemical
# Summary of the method: (§1)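 Kinase reactions ran at room temperature for 20 hours, then were stopped with EDTA. Phosphorylated product and unphosphorylated substrate were separated electrophoretically on a LabChip3000, and IC50s came from non-linear regression over eleven compound concentrations.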
# GSK3α = GSK3α (Homo sapiens, UniProt P49840); assay: biochemical
# Summary of the method: as §1
# pTau = pTau assay (method not described); format: cell-based
# [1] = second value of the cell, 250 pM enzyme, 20 uM ATP, 20 hours at room temperature, read-out: GSK3β/α (nM): GSK3α IC50
# [2] = first value of the cell, 250 pM enzyme, 20 uM ATP, 20 hours at room temperature, read-out: GSK3β/α (nM): GSK3β IC50
# Chain of GSK3β (P49841 whole entry, species assumed): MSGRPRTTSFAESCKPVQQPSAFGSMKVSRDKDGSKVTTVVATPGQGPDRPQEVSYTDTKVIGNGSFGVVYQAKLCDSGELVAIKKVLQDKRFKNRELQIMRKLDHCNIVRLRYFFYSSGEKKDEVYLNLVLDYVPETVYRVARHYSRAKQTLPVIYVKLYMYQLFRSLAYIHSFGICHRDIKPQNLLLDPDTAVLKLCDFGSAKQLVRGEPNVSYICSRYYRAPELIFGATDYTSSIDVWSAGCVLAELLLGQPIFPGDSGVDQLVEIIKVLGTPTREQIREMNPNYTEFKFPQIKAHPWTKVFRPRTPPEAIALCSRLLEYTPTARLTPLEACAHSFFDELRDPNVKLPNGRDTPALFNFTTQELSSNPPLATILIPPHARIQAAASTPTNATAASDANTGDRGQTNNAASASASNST
# Chain of GSK3α (P49840 whole entry, species assumed): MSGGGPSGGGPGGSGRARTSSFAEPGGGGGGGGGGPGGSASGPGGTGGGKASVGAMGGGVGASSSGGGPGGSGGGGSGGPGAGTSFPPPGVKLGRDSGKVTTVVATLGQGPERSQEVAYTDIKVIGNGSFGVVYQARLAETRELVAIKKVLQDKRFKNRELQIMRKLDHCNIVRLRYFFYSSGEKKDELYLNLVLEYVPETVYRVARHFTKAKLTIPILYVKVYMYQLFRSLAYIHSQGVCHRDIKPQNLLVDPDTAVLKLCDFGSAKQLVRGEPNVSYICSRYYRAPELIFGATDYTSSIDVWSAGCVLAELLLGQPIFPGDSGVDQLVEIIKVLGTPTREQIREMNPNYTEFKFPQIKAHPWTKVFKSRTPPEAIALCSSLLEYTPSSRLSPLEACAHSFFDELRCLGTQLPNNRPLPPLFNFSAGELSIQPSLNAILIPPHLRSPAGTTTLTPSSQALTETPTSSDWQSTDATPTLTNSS
IC50 (pTau; read-out: pTau (nM)),IC50 (GSK3β; [2]),IC50 (GSK3α),SMILES,IC50 (GSK3β),IC50 (GSK3α; [1]),IC50 (pTau; read-out: pTau)
,,,"CC(C)C(=O)Nc1cc(C(=O)Nc2cnccc2OCC(F)F)ccn1 [Example 204, N-(4-(2,2-Difluoroethoxy)pyridin-3-yl)-2-isobutyramidoisonicotinamide]",1.8 nM,0.97 nM,41 nM
,3 nM,,"CC(C)C(=O)Nc1cc(C(=O)Nc2cnccc2N2CCC(F)(F)CC2)c(F)cn1 [Example 206, N-(4-(4,4-difluoropiperidin-1-yl)pyridin-3-yl)-5-fluoro-2-isobutyramidoisonicotinamide]",,2.1 nM,190 nM
,2.5 nM,,"CC(C)C(=O)Nc1cc(C(=O)Nc2cncc(-c3ccccc3F)n2)ccn1 [Example 207, N-(6-(2-fluorophenyl)pyrazin-2-yl)-2-isobutyramidoisonicotinamide]",,1.1 nM,160 nM
,,,"CC(C)(C)C(=O)Nc1cc(C(=O)Nc2cnccc2N2CCC(F)(F)CC2)ccn1 [Example 208, N-(4-(4,4-difluoropiperidin-1-yl)pyridin-3-yl)-2-pivalamidoisonicotinamide]",4.2 nM,3.1 nM,120 nM
,,,"CC(C)(C)C(=O)Nc1cc(C(=O)Nc2cncc(-c3cccc(F)c3F)c2)ccn1 [Example 209, N-(5-(2,3-difluorophenyl)pyridin-3-yl)-2-pivalamidoisonicotinamide]",24 nM,14 nM,2100 nM
,3.6 nM,,"CCC1(c2cc(Cl)ncc2NC(=O)c2ccnc(NC(=O)C(C)(C)C)c2)OCCO1 [Example 210, N-(6-chloro-4-(2-ethyl-1,3-dioxolan-2-yl)pyridin-3-yl)-2-pivalamidoisonicotinamide]",,1.3 nM,250 nM
,,,"CCOc1ccncc1NC(=O)c1ccnc(NC(=O)C2CCC2)c1 [Example 211, 2-(Cyclobutanecarboxamido)-N-(4-ethoxypyridin-3-yl)isonicotinamide]",2.2 nM,0.9 nM,72 nM
96 nM,,4.4 nM,"O=C(Nc1cnccc1-c1ccccc1)c1ccnc(NC(=O)C2CCC2)c1 [Example 212, 2-(Cyclobutanecarboxamido)-N-(4-phenylpyridin-3-yl)isonicotinamide]",4.3 nM,,
,,,"O=C(Nc1cncc(-c2ccccc2)c1)c1ccnc(NC(=O)C2CC(F)(F)C2)c1 [Example 214, 2-(3,3-difluorocyclobutanecarboxamido)-N-(5-phenylpyridin-3-yl)isonicotinamide]",4.1 nM,2.9 nM,490 nM
,,,"O=C(Nc1cnccc1-c1ccccc1)c1ccnc(NC(=O)C2CC(F)(F)C2)c1 [Example 216, 2-(3,3-Difluorocyclobutanecarboxamido)-N-(4-phenylpyridin-3-yl)isonicotinamide]",1.9 nM,3.4 nM,120 nM
,,,"CC1(C)CC(C(=O)Nc2cc(C(=O)Nc3cnccc3-c3ccccc3)ccn2)C1 [Example 217, 2-(3,3-Dimethylcyclobutanecarboxamido)-N-(4-phenylpyridin-3-yl)isonicotinamide]",1.7 nM,3.2 nM,170 nM
,17 nM,,"O=C(Nc1cnccc1-c1ccccc1)c1ccnc(NC(=O)[C@H]2C[C@H](O)C2)c1 [Example 219, 2-((1,3-Trans)-3-hydroxycyclobutanecarboxamido)-N-(4-phenylpyridin-3-yl)isonicotinamide]",,6.4 nM,450 nM
,,,"CCOc1ccncc1NC(=O)c1ccnc(NC(=O)C2CCCC2)c1 [Example 226, 2-(Cyclopentanecarboxamido)-N-(4-ethoxypyridin-3-yl)isonicotinamide]",0.62 nM,0.41 nM,31 nM
47 nM,,1.4 nM,"O=C(Nc1cnccc1-c1ccccc1)c1ccnc(NC(=O)C2CCCC2)c1 [Example 227, 2-(Cyclopentanecarboxamido)-N-(4-phenylpyridin-3-yl)isonicotinamide]",1.6 nM,,
,1.6 nM,,"O=C(Nc1cncc2ccccc12)c1ccnc(NC(=O)C2CCCC2)c1 [Example 228, 2-(Cyclopentanecarboxamido)-N-(isoquinolin-4-yl)isonicotinamide]",,1.1 nM,130 nM
,,,"O=C(Nc1cnccc1-c1ccc(Cl)cc1)c1ccnc(NC(=O)C2CCC(F)(F)C2)c1 (stereo not drawn) [Example 231, N-(4-(4-chlorophenyl)pyridin-3-yl)-2-(3,3-difluorocyclopentanecarboxamido)isonicotinamide]",0.46 nM,0.9 nM,30 nM
,,,"O=C(Nc1cncc(-c2ccccc2)c1)c1ccnc(NC(=O)C2CCCC2)c1 [Example 232, 2-(cyclopentanecarboxamido)-N-(5-phenylpyridin-3-yl)isonicotinamide]",1.2 nM,0.51 nM,330 nM
,1 nM,,"O=C(Nc1cncc(-c2ccccc2)c1)c1ccnc(NC(=O)C2CCC(F)(F)C2)c1 (stereo not drawn) [Example 233, 2-(3,3-difluorocyclopentanecarboxamido)-N-(5-phenylpyridin-3-yl)isonicotinamide]",,0.33 nM,340 nM
,,,"O=C(Nc1cncc(-c2ccccc2F)c1)c1ccnc(NC(=O)C2CCC(F)(F)C2)c1 (stereo not drawn) [Example 234, 2-(3,3-difluorocyclopentanecarboxamido)-N-(5-(2-fluorophenyl)pyridin-3-yl)isonicotinamide]",1.4 nM,0.9 nM,160 nM
130 nM,,0.6 nM,"O=C(Nc1cncc(-c2cccc(F)c2F)c1)c1ccnc(NC(=O)C2CCC(F)(F)C2)c1 (stereo not drawn) [Example 235, 2-(3,3-difluorocyclopentanecarboxamido)-N-(5-(2,3-difluorophenyl)pyridin-3-yl)isonicotinamide]",1.4 nM,,
,4.3 nM,,"O=C(Nc1cncc(-c2cc(F)ccc2F)c1)c1ccnc(NC(=O)C2CCC(F)(F)C2)c1 (stereo not drawn) [Example 236, 2-(3,3-difluorocyclopentanecarboxamido)-N-(5-(2,5-difluorophenyl)pyridin-3-yl)isonicotinamide]",,2.1 nM,180 nM
,,,"O=C(Nc1cncc(-c2ccccc2Cl)c1)c1ccnc(NC(=O)C2CCC(F)(F)C2)c1 (stereo not drawn) [Example 237, N-(5-(2-chlorophenyl)pyridin-3-yl)-2-(3,3-difluorocyclopentanecarboxamido)isonicotinamide]",4.1 nM,0.78 nM,94 nM
,0.11 nM,,"CCC1(c2cc(Cl)ncc2NC(=O)c2ccnc(NC(=O)C3CCC(F)(F)C3)c2)OCCO1 (stereo not drawn) [Example 238, N-(6-chloro-4-(2-ethyl-1,3-dioxolan-2-yl)pyridin-3-yl)-2-(3,3-difluorocyclopentanecarboxamido)isonicotinamide]",,0.07 nM,8.3 nM

SMILES,IC50 (pTau; read-out: pTau (nM)),IC50 (GSK3β; [2]),IC50 (GSK3α),IC50 (GSK3β),IC50 (GSK3α; [1]),IC50 (pTau; read-out: pTau)
"CC(C)(F)C(=O)Nc1cc(C(=O)Nc2cnccc2-c2ccccc2)ccn1 [Example 205, 2-(2-Fluoro-2-methylpropanamido)-N-(4-phenylpyridin-3-yl)isonicotinamide]",5100 nM,,,49 nM,52 nM,
